Measured values as given in PubChem BioAssay (NCI).
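These data come from cells grown in 96-well plates and exposed to compound for 48 hours at five concentrations. The concentration for full growth arrest is given as TGI.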

Experiments:
Assay in all cases: NCI-60 cell line screen, 48 h
SNB-19 CNS = test system: SNB-19 CNS
MDA-MB-435 = test system: MDA-MB-435
HCT-15 colon = test system: HCT-15 colon
K-562 leukemia = test system: K-562 leukemia
HS 578T breast = test system: HS 578T breast
MDA-MB-231 breast = test system: MDA-MB-231 breast
CCRF-CEM leukemia = test system: CCRF-CEM leukemia
DU-145 prostate = test system: DU-145 prostate
EKVX NSCLC = test system: EKVX NSCLC
UACC-257 melanoma = test system: UACC-257 melanoma
NCI-H226 lung = test system: NCI-H226 lung
BT-549 breast = test system: BT-549 breast
NCI-H460 lung = test system: NCI-H460 lung
RPMI-8226 leukemia = test system: RPMI-8226 leukemia
MOLT-4 leukemia = test system: MOLT-4 leukemia
CAKI-1 renal = test system: CAKI-1 renal
SK-MEL-2 melanoma = test system: SK-MEL-2 melanoma
HCT-116 colon = test system: HCT-116 colon
OVCAR-5 ovarian = test system: OVCAR-5 ovarian
RXF 393 renal = test system: RXF 393 renal
MDA-N = test system: MDA-N
786-0 renal = test system: 786-0 renal
NCI-H23 lung = test system: NCI-H23 lung
SF-268 CNS = test system: SF-268 CNS
MALME-3M melanoma = test system: MALME-3M melanoma
LOX IMVI melanoma = test system: LOX IMVI melanoma
U251 CNS = test system: U251 CNS
HCC-2998 colon = test system: HCC-2998 colon
OVCAR-8 ovarian = test system: OVCAR-8 ovarian
HOP-62 NSCLC = test system: HOP-62 NSCLC
SF-539 CNS = test system: SF-539 CNS
T-47D breast = test system: T-47D breast
PC-3 prostate = test system: PC-3 prostate
UACC-62 melanoma = test system: UACC-62 melanoma
SN12C renal = test system: SN12C renal
A498 renal = test system: A498 renal
UO-31 renal = test system: UO-31 renal
TK-10 renal = test system: TK-10 renal
NCI-H522 lung = test system: NCI-H522 lung
HOP-92 NSCLC = test system: HOP-92 NSCLC
OVCAR-4 ovarian = test system: OVCAR-4 ovarian
SF-295 CNS = test system: SF-295 CNS
MCF7 breast = test system: MCF7 breast
HL-60(TB) leukemia = test system: HL-60(TB) leukemia
A549 NSCLC = test system: A549 NSCLC
OVCAR-3 ovarian = test system: OVCAR-3 ovarian
SK-OV-3 ovarian = test system: SK-OV-3 ovarian
ACHN renal = test system: ACHN renal
HT29 colon = test system: HT29 colon
NCI/ADR-RES ovarian = test system: NCI/ADR-RES ovarian
M14 melanoma = test system: M14 melanoma
SK-MEL-5 melanoma = test system: SK-MEL-5 melanoma
KM12 colon = test system: KM12 colon
IGROV1 ovarian = test system: IGROV1 ovarian

## COc1ccc(C2=Nn3c(C)nnc3S/C2=C\c2ccc(-c3ccc([N+](=O)[O-])cc3)o2)cc1
SNB-19 CNS
  TGI: 38.7 µM
MDA-MB-435
  TGI: 17.9 µM
HCT-15 colon
  TGI: 27.7 µM
K-562 leukemia
  TGI: 17.7 µM
HS 578T breast
  TGI: > 100 µM
MDA-MB-231 breast
  TGI: > 100 µM
CCRF-CEM leukemia
  TGI: > 100 µM
DU-145 prostate
  TGI: 27.3 µM
EKVX NSCLC
  TGI: 82.9 µM
UACC-257 melanoma
  TGI: 54.7 µM
NCI-H226 lung
  TGI: 46.2 µM
BT-549 breast
  TGI: 19 µM
NCI-H460 lung
  TGI: 39.5 µM
RPMI-8226 leukemia
  TGI: 15.5 µM
MOLT-4 leukemia
  TGI: 18 µM
CAKI-1 renal
  TGI: 29.1 µM
SK-MEL-2 melanoma
  TGI: 40.8 µM
HCT-116 colon
  TGI: 26.1 µM
OVCAR-5 ovarian
  TGI: 43 µM
RXF 393 renal
  TGI: 22.8 µM
MDA-N
  TGI: 29.8 µM
786-0 renal
  TGI: 22 µM
NCI-H23 lung
  TGI: 28.5 µM
SF-268 CNS
  TGI: 47.1 µM
MALME-3M melanoma
  TGI: 86.3 µM
LOX IMVI melanoma
  TGI: 30.3 µM
U251 CNS
  TGI: 45.8 µM
HCC-2998 colon
  TGI: 19.9 µM
OVCAR-8 ovarian
  TGI: 15.9 µM
HOP-62 NSCLC
  TGI: > 100 µM
SF-539 CNS
  TGI: 25.6 µM
T-47D breast
  TGI: > 100 µM
PC-3 prostate
  TGI: 59.5 µM
UACC-62 melanoma
  TGI: 28.3 µM
SN12C renal
  TGI: 33.6 µM
A498 renal
  TGI: 89.8 µM
UO-31 renal
  TGI: 29.8 µM
TK-10 renal
  TGI: 34.3 µM
NCI-H522 lung
  TGI: 23.8 µM
HOP-92 NSCLC
  TGI: 62.2 µM
OVCAR-4 ovarian
  TGI: > 100 µM
SF-295 CNS
  TGI: > 100 µM
MCF7 breast
  TGI: 88.7 µM
HL-60(TB) leukemia
  TGI: 73.5 µM
A549 NSCLC
  TGI: 66.7 µM
OVCAR-3 ovarian
  TGI: 33 µM
SK-OV-3 ovarian
  TGI: > 100 µM
ACHN renal
  TGI: 25.3 µM
HT29 colon
  TGI: 43 µM
NCI/ADR-RES ovarian
  TGI: 23.2 µM
M14 melanoma
  TGI: 48.2 µM
SK-MEL-5 melanoma
  TGI: 34.4 µM
KM12 colon
  TGI: 40.1 µM
IGROV1 ovarian
  TGI: 42.7 µM
